Like-named read-outs stand apart in the source and are kept apart here. Values belong to the compound of their own block, whether it stands above or below them.
Assays:
swine coronary arteries = assay: In vitro vasorelaxation in isolated swine coronary arteries (PGF2α-contracted rings); format: cell-based; conditions: Sus scrofa; for EC50: Table II; for IC50: read-out: Vasorelaxation (IC50)
Method: Swine coronary arteries were obtained from a local slaughter house, dissected carefully and cleaned of fat, blood and adhering tissue. Rings approximately 2-3 mm wide were cut and transferred to water-jacketed tissue baths (10 ml) filled with warm (37° C.), oxygenated (O2 /CO2 :95%/5%) Krebs-Henseleit buffer and mounted on L-shaped hooks between stainless steel rods and a force transducer. […] Rings were equilibrated for 90 minutes with frequent buffer changes at a resting tension of 5 g In order to assure optimal tension development, arterial rings were primed twice with 36 mM KCl and once with 10 μm. PGF2α, before being exposed to 3 μM PGF2α. […] Tension achieved with 3 μM PGF2α was considered .equivalent to 100%; all other values were expressed as a percentage of that maximum.

rat adipocytes = assay: In vitro lipolysis assay in rat adipocytes (glycerol production); format: cell-based; conditions: for EC50 / inhibition at 0.1 µM / inhibition at 1 µM: Rattus norvegicus, Adipocyte; for EC50: read-out: EC50 (50% inhibition of glycerol production); for inhibition at 0.1 µM / inhibition at 1 µM: read-out: % Inhibition of glycerol production
Method: Adipose tissue is removed from anesthetized rats and rinsed twice in incubation medium (2.09 g sodium bicarbonate and 0.04 g EDTA, disodium salt, in 1 L Krebs buffer). Each rat (300-350 g) yields approximately 4 ml of adipose tissue. The adipose tissue (35 ml) is cut into small pieces with scissors and washed with incubation medium (50 ml). The mixture is poured into the barrel of a 50 ml syringe to which is attached a short piece of clamped tubing instead of a needle. The aqueous phase is allowed to drain. A second wash with incubation medium is passed through the syringe. The tissue is added to 50 ml of collagenase solution (collagenase(90 mg), bovine serum albumin (BSA) (500 mg), and 0.1 M calcium chloride solution (1 ml), in incubation medium (50 ml)) in a 1 L bottle. The mixture is shaken in an environmental at 37° C. for about 60 minutes under an atmosphere of 95% oxygen/5% carbon dioxide to effect digestion of the tissue. The dispersed cells are poured through 2 layers of cheese cloth into a 100 ml plastic beaker. The undigested clumps in the cloth are rinsed once with incubation medium (20 ml). The cells in the beaker are centrifuged in 2 plastic tubes for 30 seconds at room temperature at 300 rpm. The aqueous phase is aspirated from beneath the loosely packed layer of floating fat cells and discarded. The adipocytes are gently poured into a 250 ml plastic beaker containing 100 ml of rinse solution (1 g BSA per 100 ml incubation medium). After gentle stirring the centrifugation step is repeated. Another wash with rinse solution follows. The cells are pooled and their volume is estimated with a graduated cylinder. The adipocytes are diluted in twice their volume of assay buffer (incubation medium (120 ml), BSA (1.2 g), pyruvic acid (13 mg)).
The assay is performed in 20 ml plastic scintillation vials and the total assay volume is 4.2 ml. Assay buffer (2.5 ml), diluted adipocytes (1.5 ml), and a solution of the compound to be tested (12.3 μL) adenosine agonist (12.3 μl; varying concentration) is incubated in the environmental shaker for 15 minutes, then the reaction is started with norepinephrine solution (41.2 μL) (10 nM, in a carrier solution containing water (100 ml), BSA (4 mg), and 0.1 M EDTA (20 I. LL))and adenosine deaminase (1 μg/ml, 41.2 μl). After sixty minutes in the shaker the reaction is terminated by putting the vials on ice. […] The hard lipid layer is removed by aspiration and the aqueous layer is assayed for glycerol (400 μl of sample). The positive control is done in the absence of any adenosine agonist, substituting water in place of the solution to be tested.

[1] = test system: normotensive anesthetized rat; assay: In vivo mean arterial pressure and heart rate in normotensive anesthetized rat; conditions: iv
Method: Normotensive rats were anesthetized with sodium pentobarbital (50 mg/kg, j.p.) and placed on a heated surgical table. Cannulas were inserted into the femoral artery and […] to allow the measurement of arterial pressure and to facilitate the intravenous administration of test compounds. The animals was allowed to equilibrate for 10 minutes after surgery. Mean arterial pressure was continuously measured and recorded and heart rate was monitored using the arterial pressure pulse to trigger a cardiotachometer. After baseline parameters were established and recorded, increasing doses (1, 3, 10, 30, 100, 300 and 1000 μg/kg) of the compound of the invention to be tested were administered intravenously. Maximal changes in the cardiovascular parameters were observed after each dose of the adenosine agonist. Only one compound was administered per rat.

[2] = 50% reduction in tension, 3 μM PGF2α, read-out: Vasorelaxation in Swine Coronary Artery/IC50
[3] = read-out: Vasorelaxation in Swine Coronary Artery/IC50 (μM), 50% reduction in tension, 3 μM PGF2α
[4] = 0.1 μM, versus positive control
[5] = dose lowering heart rate by 25%, read-out: Blood Press/Heart Rate Anesthetized Rat HR/ED25
[6] = dose lowering mean arterial pressure by 25%, read-out: Blood Press/Heart Rate Anesthetized Rat MAP/ED25

EC50 (swine coronary arteries; [2]): 0.45 µM
Compound: CCNC(=O)[C@H]1C[C@@H](n2cnc3c(NC(CC)Cc4sccc4Cl)ccnc32)[C@H](O)[C@@H]1O (stereo partly drawn) [Example 37, [1S-[1α,2β,3β,4α]]-4-[7-[[2-(3-chloro-2-thienyl)-1-ethylethyl]amino]-3 H-imidazo[4,5-b]pyridin-3-yl]-N-ethyl-2,3-dihydroxycyclopentane-carboxamide]

Compound: CCNC(=O)[C@H]1C[C@@H](n2cnc3c(N[C@H](C)Cc4ccc(Cl)s4)ncnc32)[C@@H]2OC(OCC)O[C@@H]21 (stereo partly drawn) [Example 43, (2S)-2α,3α-dihydroxy-4β-[N6-[2-(5-chloro-2-thienyl)-(1R)-1-methylethyl]amino-9-adenyl]cyclopentane-1β-N-ethylcarboxamide ethoxymethylene acetal]
EC50 (swine coronary arteries; [3]): 7.83 µM

Compound: CO[C@@H]1[C@H](O)[C@@H](CO)O[C@H]1n1cnc2c(N[C@H](C)Cc3ccc(Cl)s3)ncnc21 [Example 48, N^6-[2-(5-chloro-2-thienyl)-(1R)-1-methylethyl]-2'-O-methyladenosine]
EC50 (rat adipocytes): 1.86 nM
inhibition at 0.1 µM (rat adipocytes; [4]): 88%

Compound: OC[C@H]1O[C@@H](n2cnc3c(N[C@@H]4CC=CC[C@H]4c4ccsc4)ncnc32)[C@H](O)[C@@H]1O (relative stereo) [Example 8, N^6-[trans-2-(thiophen-3-yl)-cyclohex-4-en-1-yl]adenosine]
ED25 [1, 5]: 0.023 mg/kg
ED25 [1, 6]: 0.01 mg/kg

Compound: C[C@H](Cc1ccccc1)Nc1ncnc2c1ncn2[C@@H]1O[C@H](CO)[C@@H](O)[C@H]1O [R-PIA, R-phenylisopropyladenosine, reference compound]
IC50 (swine coronary arteries): 0.76 µM
EC50 (rat adipocytes): 1 nM

Compound: CCNC(=O)[C@H]1C[C@@H](n2cnc3c(N[C@H](C)Cc4ccc(Cl)s4)ncnc32)[C@H](OC(=O)OC)[C@@H]1OC(=O)OC [Example 42, (2S)-2α,3α-bis-methoxycarbonyloxy-4β-[N6-[2-(5-chloro-2-thienyl)-(1R)-1-methylethyl]amino-9-adenyl]cyclopentane-1β-N-ethylcarboxamide]
EC50 (swine coronary arteries; [3]): 2.44 µM

EC50 (swine coronary arteries; [2]): 0.47 µM
Compound: CCNC(=O)[C@H]1C[C@@H](n2cnc3c(NC(Cc4cccs4)C(C)C)ccnc32)[C@H](O)[C@@H]1O (stereo partly drawn) [Example 38, [1S-[1α,2β,3β,4α]]-4-[7-[[2-(2-thienyl)-1-isopropylethyl]amino]-3 H-imidazo[4,5-b]pyridin-3-yl]-N-ethyl-2,3-dihydroxycyclopentanecarboxamide]

EC50 (swine coronary arteries; [2]): 0.283 µM
Compound: CCNC(=O)[C@H]1C[C@@H](n2cnc3c(N[C@H](C)Cc4cccs4)ccnc32)[C@H](O)[C@@H]1O [Example 40, [1S-[1α,2β,3β,4α(S*)]]-4-[7-[[2-(2-thienyl)-1-methylethyl]amino]-3 H-imidazo[4,5-b]pyridin-3-yl]-N-ethyl-2,3-dihydroxycyclopentane-carboxamide]

Compound: CCNC(=O)[C@H]1C[C@@H](n2cnc3c(NCCc4cccs4)ccnc32)[C@H](O)[C@@H]1O (relative stereo) [Example 30, (±)-N6-[1-(thiopheny-2-yl)ethan-2-yl]-N'-1-deazaaristeromycin-5'-N-ethyl carboxamide]
EC50 (swine coronary arteries; [3]): 12.1 µM
ED25 [1, 5]: > 0.01 mg/kg
ED25 [1, 6]: 0.006 mg/kg

EC50 (swine coronary arteries; [2]): 5.7 µM
EC50 (rat adipocytes; unit nM in cell): 0.63 nM
Compound: CO[C@@H]1[C@H](O)[C@@H](CO)O[C@H]1n1cnc2c(N[C@H](C)Cc3sccc3Cl)ncnc21 [Example 47, N^6-[2-(3-chloro-2-thienyl)-(1R)-1-methylethyl]-2'-O-methyladenosine]
inhibition at 0.1 µM (rat adipocytes; [4]): 94%

Compound: CCNC(=O)[C@H]1C[C@@H](n2cnc3c(N[C@H](C)Cc4ccc(Cl)s4)ncnc32)[C@@H]2OC(=S)O[C@@H]21 [Example 46, (2S)-2α,3α-dihydroxy-4β-[N6-[2-(5-chloro-2-thienyl)-(1R)-1-methylethyl]amino-9-adenyl]cyclopentane-1β-N-ethylcarboxamide-2,3-thiocarbonate]
EC50 (swine coronary arteries; [3]): 3.52 µM
EC50 (rat adipocytes; unit nM in cell): 4 nM

Compound: CCNC(=O)[C@H]1O[C@@H](n2cnc3c(N)ncnc32)[C@H](O)[C@@H]1O [NECA, N-ethylcarboxamidoadenosine, reference compound]
EC50 (rat adipocytes): 2.5 nM

Compound: CCNC(=O)[C@H]1O[C@@H](n2cnc3c(N)nc(NCCc4ccc(CCC(=O)O)cc4)nc32)[C@H](O)[C@@H]1O [CGS21680, reference compound]
IC50 (swine coronary arteries): 0.08 µM
inhibition at 1 µM (rat adipocytes): 0%
antilipolytic activity (rat adipocytes; in words): do not exhibit antilipolytic activity

EC50 (swine coronary arteries; [2]): 3.3 µM
Compound: CCNC(=O)[C@H]1C[C@@H](n2cnc3c(N[C@H](C)Cc4ccc(Cl)s4)[n+]([O-])cnc32)[C@H](O)[C@@H]1O [Example 35, (2S)-2α,3α-dihydroxy-4β-[N6-[2-(5-chloro-2-thienyl)-(1R)-1-methylethyl]amino-9-adenyl]cyclopentane-1β-N-ethylcarboxamide-N^1-oxide]

Compound: CCNC(=O)[C@H]1O[C@@H](n2cnc3c(NC4CC=CCC4c4cccs4)ncnc32)[C@H](O)[C@@H]1O (single isomer, unassigned) [Example 5, N6-[trans-2-(thiophen-2-yl)cyclohex-4-en-l-yl]adenosine-5'-N-ethylcarboxamide]
EC50 (swine coronary arteries; [3]): 0.068 µM

Compound: OC[C@H]1O[C@@H](n2cnc3c(NC4CCCC4)ncnc32)[C@H](O)[C@@H]1O [CPA, N-cyclopentyladenosine, reference compound]
IC50 (swine coronary arteries): 3.18 µM
inhibition at 0.1 µM (rat adipocytes): 97%
inhibition at 1 µM (rat adipocytes): 100%
EC50 (rat adipocytes): 0.31 nM

Compound: CO[C@@H]1[C@H](O)[C@@H](CO)O[C@H]1n1cnc2c(N[C@@H]3CC=CC[C@H]3c3cccs3)ncnc21 (relative stereo) [Example 49, N^6-[trans-5-(2-thienyl)cyclohex-1-en-4-yl]-2'-O-methyladenosine]
EC50 (swine coronary arteries; [3]): 9.81 µM
EC50 (rat adipocytes): 18.6 nM
inhibition at 0.1 µM (rat adipocytes; [4]): 85%

Compound: CCNC(=O)[C@H]1C[C@@H](n2cnc3c(N[C@H](CC)Cc4ccc(Cl)s4)ccnc32)[C@H](O)[C@@H]1O [Example 41, [1S-[1α,2β,3β,4α]]-4-[7-[[2-(5-chloro-2-thienyl)-1-ethylethyl]amino]-3 H-imidazo[4,5-b]pyridin-3-yl]-N-ethyl-2,3-dihydroxycyclopentane-carboxamide]
inhibition at 0.1 µM (rat adipocytes; [4]): 88%

EC50 (swine coronary arteries; [2]): 0.64 µM
Compound: CCNC(=O)[C@H]1C[C@@H](n2cnc3c(NCCc4nccs4)ncnc32)[C@H](O)[C@@H]1O (relative stereo) [Example 25, (±)-N^6-[2-(2"-thiazolyl)ethyl]-carbocyclic adenosine-5'-N-ethyl carboxamide]

EC50 (swine coronary arteries; [2]): 4.1 µM
Compound: CCNC(=O)[C@H]1C[C@@H](n2cnc3c(N[C@H](C)Cc4ccc(Cl)s4)ncnc32)[C@H](OC(=O)NC)[C@@H]1OC(=O)NC [Example 45, (2S)-2α,3α-bis-methylcarbamoyloxy-4β-[N6-[2-(5-chloro-2-thienyl)-(1R)-1-methylethyl]amino-9-adenyl]cyclopentane-1β-N-ethylcarboxamide]

Reference: patent US5652366A, “DI (1R)-(-)camphosulfonic acid) salt, preparation thereof and use thereof” (Rhone-Poulenc Rorer Pharmaceuticals Inc., priority 1995, dated 1997)
